Laboratory results taken from patent US10583210B2, “Auger electron therapy for glioblastoma” (Syddansk Universitet, priority 2014, dated 2020).
Entries after “also recorded” stand apart in the source; their conditions may differ.

Experiments:
T87 glioblastoma cells = assay: CellTiter Blue viability assay, T87 cells; assay type: cell-based, human
Experimental: (§1) Cells were cultured as free-floating spheroids in the absence of serum at 36° C. in a humidified incubator with 5% CO2. Two GSCs passage 9-12, designated […], were utilized. They were established, as previously described in our laboratory in 2009 ([…]) and 2010 ([…]), in accordance with the Regional Scientific Ethical Committee (approval number S-VF-20040102). They have; the ability to form new spheroids at clonal density, a karyotype typical of GBMs, the ability to differentiate into cells expressing neuronal, astrocytic and oligodendrocyte markers upon culturering in serum-containing medium and the ability to form highly invasive tumors upon orthotopic xenografting (exemplified for the […] GCS in Supplementary FIG. 1). […] The cells were then incubated in serum-free medium or serum-free medium containing either the non-radioactive, but chemically identical ^[…]-UdR (0.3 μg/ml, Sigma-Aldrich), or increasing activities of ^125I-UdR (0-3 kBq/ml). At day 7, 20 μl of CellTiter Blue (Promega) was added and the cells were returned to the incubator for 6 hours prior to recording of the fluorescence in a Victor3 Multilabel Plate Reader (PerkinElmer Life Sciences).

T87 GBM cells = assay: 125I-UdR incorporation after MTX/F-UdR exposure, T87 (gammacounter); assay type: cell-based, human; conditions: for 125I-UdR incorporation compared to non-treated control cells: 1 hour pre-treatment with 1 μM, 16 h later 100 Bq/mL 125I-UdR for 72 h
Experimental: A) 1 hour pre-treatment of T87 GBM cells in vitro with 1 μM MTX or F-UdR before ^125I-UdR exposure increased the ^125I incorporation in the cells. […] The incorporation rate was determined by a gammacounter. […] F-UdR was effective in concentrations ≥1 nM while MTX was effective at ≥10 nM. At a F-UdR concentration of 10 μM, the 125I-incorporation declined presumably do to toxic effects from the F-UdR. […] Opposed to the T87 cell line, the T86 cell line is also known to have an unmethylated MGMT promoter region, thereby being less responsive to TMZ chemotherapy.

[1] = tested on: TE-671 human rhabdomyosarcoma cells; conditions: IT bolus of 125I-UdR, IT infusion of MTX; cited from earlier work
[2] = tested on: orthotopic xenografted GBM (evolved from the T87 GSC); assay: Therapeutic study in orthotopic xenografted GBM-bearing nude rats (PET, survival, histology)
Experimental: All animal procedures were conducted in accordance with the obtained approval from the national Animal Experiments Inspectorate (permission J. Nr. 2008/561-1572). Male athymic nude rats (n=24) aged six weeks (Hsd:RH-Foxnl mu, Harlan laboratories) were anaesthetized subcutaneously (mixture of Hypnorm and Midazolam) and placed in a small animal stereotaxic instrument (Model 900, David Kopf Instruments). Through a midline scalp incision, the bregma was exposed, and one mm anteriorly and two mm laterally to this a burr hole was made. A blunt cannula (Hamilton 7102 syringe) was then advanced to a depth of 3.5 mm (right striatum), and a 2 μl cell suspension of 300,000 T87 single cells in Hank's Balanced Salt Solution (Gibco) supplemented with 0.9% glucose (SAD 500 mg/ml) was slowly injected. After removal of the cannula, the skin was closed with VICRYL 5.0 (Ethicon) disrupted sutures. Two weeks after tumor-cell inoculation, a SMP-200 iPRECIO® Micro Infusion Pump (Data Sciences International) was implanted subcutaneously, since preliminary experiments had shown establishment of tumors at this time point. Infusion protocols (instant mode, constant flow mode and 5 μl/hour infusion rate) were downloaded, and the pumps were conditioned according to Low Flow Infusion Standard Operational Procedure. Rats were anaesthetized and fixated as described above. The midline incision was re-incised and the burr hole was identified. A 4 mm pump connector cannula (PlasticsOne model 328OPM/PK/Spc) was then connected to the pump catheter and implanted (according to the manufactures Technical Note 6) with the tip of the cannula in the center of the bulk tumor. Pumps were loaded with isotone saline (n=8, group I) or 0.1 mM MTX (Sigma-Aldrich) (n=16, group II and III). Finally, the skin was closed with VICRYL 5.0 disrupted sutures. As one of the rats with an MTX loaded pump never woke up after surgery it was censored from the study. Two days later the 23 rats were anaesthetized using isoflurane, and residual saline or MTX was extracted from the pump reservoirs according to the manufacturer's instructions. The reservoirs were refilled with 960 μl of 0.3 μg/m ^127I-UdR (n=8, group I) or twice with the ^125I-UdR activity (n=15, group II and III), enabling 8 days of continuous infusion and a cumulated infused ^125I-UdR activity of 83±7 MBq.
Rats were fed ad libitum and to block the thyroid gland, KI (Sigma-Aldrich) was added to the drinking water (1 mg/ml) from the day of pump implantation and the following 14 days. At the end of the observation period (180 days after completion of treatment) or once animals reached the pre-determined humane endpoints (neurological deficits or >20% weight-loss) they were anaesthetized by isoflurane and euthanized by intravenous pentobarbital injection.
For tumor response evaluation, the animals were PET scanned biweekly in the initial phase and later every third week using the Inveon PET scanner. […] After the tracer injection pairs of animals were placed head-to-head in the scanner and at 40 min. post injection a 14 min. static scan was performed. The acquired data were reconstructed using the ordered subset expectation maximization in two dimensions algorithm without scatter and attenuation correction in the Inveon Acquisition Workplace software module (Siemens).
Brain, thyroid gland, liver and kidneys were removed post-mortem and fixed in 4% formaldehyde. After fixation, brains were divided in one mm thick coronal sections using a rat brain matrix (PlaticsOne) followed by paraffin embedment. […] Three μm sections were cut and all sections were stained with HE for morphological evaluation.

C6 glioma = conditions: local implant, 7.4 MBq 125I-UdR, passive diffusion; cited from earlier work
[3] = Intracerebral distribution by SPECT/CT; assay type: in vivo, athymic nude rats; conditions: constant intratumoral CED for 8 days, last day of infusion
Experimental: The intracranial distribution of infused ^125I-UdR was measured at the last day of infusion using a Siemens Inveon Small Animal PET/SPECT/CT scanner. The animals were anesthetized using isoflurane and subsequently SPECT scanned for approximately 42 min using 1.8 mm pinhole collimators (3×1.8 RWB collimators) with 30 projections in 180 degrees rotation. […] In one of the animals a low-dose CT scan was performed in combination with the SPECT scan to visualize the surrounding cranium.

T87 spheroids = assay: 2D spheroid migration assay, T87; assay type: cell-based, human; conditions: for spheroid migration: 3 kBq/ml 125I-UdR or 0.3 μg/ml 127I-UdR, day 0-5, effect from day three
Experimental: (§2) Geltrex (Gibco) and serum-free medium was mixed (1+49) and 1.4 ml was added to each well in 12-well plates. Coated plates were incubated over night at 36° C. and the following morning the supernatant was aspirated. Then, one spheroid (100-200 μm) was aspirated into a 0.1-2.0 μl pipette and meticulously embedded in the coating. After incubating the plate for 75 minutes at 36° C., 800 μl serum-free medium was added. When spheroids started migrating (designated day 0) additionally 200 μl of serum-free medium (serving as untreated controls), ^127I-UdR or ^125I-UdR was added resulting in a final concentration of 0.3 μg/ml or 3 kBq/ml of ^127I-UdR or ^125I-UdR, respectively. Images were obtained daily from day 0 to day 5 using a Leica DM IRB inverted phase-contrast microscope, a Leica DFC300FX camera, and the Leica Application Suite version 2.6.0 RI computer software. The radius of the spheroids was determined (http://imagej.nih.gov/ij/) and the migration speed/day was calculated.

T78 spheroids = assay: 2D spheroid migration assay, T78; assay type: cell-based, human; conditions: 3 kBq/ml 125I-UdR, from day three, vs 127I-UdR treated spheroids
Experimental: as §2

[4] = tested on: T78 glioblastoma (GBM) cells; assay: CellTiter Blue viability assay, T78 cells; assay type: cell-based, human
Experimental: as §1

[5] = Adverse effect evaluation (blood samples, post-mortem histology); assay type: in vivo, athymic nude rats
[6] = co-incubation with 18.5 KBq/mL 125I-UdR for 4 hours

O=c1[nH]c(=O)n([C@H]2C[C@H](O)[C@@H](CO)O2)cc1F [F-UdR, 5-Fluoro-2′-deoxyuridine]
killing effect compared with MTX (T87 glioblastoma cells; T87, 7 days exposure): stronger killing effect | 125I-UdR incorporation compared to non-treated control cells (T87 GBM cells): significantly increase | concentration effective in increasing 125I incorporation (T87 GBM cells; [6]): ≥ 1 nM | 125I-incorporation at 10 μM (T87 GBM cells; co-incubation with 18.5 KBq/mL 125I-UdR for 4 hours, presumably toxic effects): declined

CN(Cc1cnc2nc(N)nc(N)c2n1)c1ccc(C(=O)N[C@@H](CCC(=O)O)C(=O)O)cc1 [MTX, methotrexate]
median time to onset of paralysis [1]: no significant effect | 125I-UdR incorporation compared to non-treated control cells (T87 GBM cells): significantly increase | concentration effective in increasing 125I incorporation (T87 GBM cells; [6]): ≥ 10 nM

Cn1nnc2c(C(N)=O)ncn2c1=O [TMZ, temozolomide]
maximum survival extrapolated for TMZ monotherapy ([2]; extrapolating the U87MG data to the present findings): 66 days | median survival ([2]; orthotopic GBM rat model, KM-survival plot FIG. 14): 47 days

O=c1[nH]c(=O)n([C@H]2C[C@H](O)[C@@H](CO)O2)cc1[125I] [^125I-UdR, 5-[^125I]iodo-2′-deoxyuridine]
animals surviving the entire observation period of 180 days (C6 glioma): 20% | median survival (C6 glioma): 35 days | IC50 (cell viability) (T87 glioblastoma cells; T87, 7 days exposure, non-linear regression, range printed 99-120 Bq/mL): 109 Bq/mL | cell survival compared to untreated controls (T87 glioblastoma cells; T87, day 7, most activity concentrations (0-3 kBq/ml), p<0.0001): significantly decreased | activity concentrations with highly significant effect compared to 127I-UdR (T87 glioblastoma cells; T87, p<0.0001): ≥ 100 Bq/ml | 125I in the tumor region by SPECT/CT [3]: high concentration | spheroid migration (T87 spheroids): significantly reduced; also recorded: clearly inhibited | spheroid expansion in size (T87 spheroids; vs untreated or 127I-UdR exposed spheroids): not able to expand in size | spheroid migration (T78 spheroids): significantly reduced | cell survival compared to untreated controls ([4]; T78, day 7, most activity concentrations (0-3 kBq/ml), p<0.0001): significantly decreased | activity concentrations with highly significant effect compared to 127I-UdR ([4]; T78, p<0.0001): ≥ 100 Bq/ml

O=c1[nH]c(=O)n([C@H]2C[C@H](O)[C@@H](CO)O2)cc1I [^127I-UdR, 5-iodo-2′-deoxyuridine]
animals developing a PET-detectable tumor / tumor progression by [11C]MeAIB PET ([2]; 180 days observation period): rapidly progressed | animals surviving the entire observation period ([2]; 180 days, surviving/total animals): 0/8 | time from therapy initiation to the first PET-based tumor detection ([2]; [11C]MeAIB PET): 21 days | post-mortem histology of the brains ([2]; anti-human vimentin staining): very large tumors | longest survival after initiation of treatment ([2]; death due to massive tumor burden): ≤ 23 days | animals surviving the entire observation period of 180 days (C6 glioma): No ^127I-UdR treated animal survived the entire observation period | median survival (C6 glioma): 20 days | animals with dark neurons in the hippocampus (CA3 region) ([5]; HE stained brain sections): 4/8 | animals with dark neurons in the neocortex ([5]; HE stained brain sections): 7/8 | thyroid gland histology ([5]; HE stained sections): normofollicular architecture | liver histology (hepatocyte necrosis, haemorrhage, inflammation) ([5]; PAS-diastase staining): no signs of hepatocyte necrosis, haemorrhage or inflammation | spheroid migration (T87 spheroids): unaffected
